Laboratory results: patent publication US20240336565A1, “SOLID FORMS OF OSANETANT” (Acer Therapeutics, Inc., priority 2021, published 2024)
Entries after “also recorded” stand apart in the source; their conditions may differ.

Columns and labels:
[1] = Disproportionation study (stirring in water, XRPD, pH of liquor); format: physicochemical
Protocol: After 24 h total, a white slurry was observed and was isolated by centrifugation. The solids were analyzed by XRPD. The pH of the filtered liquor was measured at 5.63. […] After 24 h total, a white slurry was observed and was isolated by centrifugation. The solids were analyzed by XRPD. The pH of the filtered liquor was measured (pH=5.09).

[2] = Comparative studies: 7-day stability; format: physicochemical; conditions: for HPLC Impurity Content: 7 Day Stability; for solid form on 7-day stability: 7 days, elevated temperature where stated
Protocol: Osanetant p-toluenesulfonic acid Form 1, osanetant benzene sulfonic acid Form 3, osanetant naphthalene-2-sulfonic acid Form 3, and osanetant phosphoric acid Form 7 were compared. Osanetant phosphoric acid Form 7 was obtained when preparation of osanetant phosphoric acid Form 4 was repeated and found to be not reproducible, and Form 7 was determined to be a mixture of hydrates).
Thus, osanetant benzene sulfonic acid salt Form 1 and osanetant p-toluene sulfonic acid salt Form 1 were identified as advantageous salts.

[3] = Thermodynamic solubility in water and pH buffers; conditions: for Concentration: 24 h Solubility at 37° C.
[4] = Salt screen: XRPD of isolated solids after drying at 40° C. and at 40° C./75% RH; format: physicochemical; conditions: for XRPD after drying at 40° C./75% RH: after 40° C. drying, dried at 40° C./75% RH for about 24 h, label = form after 40° C. drying; for XRPD after drying at 40° C.: isolated solids dried at 40° C. for about 24 h, label = wet form
Protocol: To approximately 20 mg of amorphous lyophilized osanetant was added 0.3 mL of solvent for liquid counterion experiments. 0.2 mL of solvent was employed for solid counterion experiments. […] To the stirring mixture was then added 1.05 mol eq. of the appropriate counterion. Where solid counterions were used, the vial which contained the counterion was washed in to the osanetant containing vial with 0.1 mL of the appropriate solvent. Additional solvent was added where necessary. The experiments were thermally cycled as follows: heated from 25 to 40° C. at a rate of 0.1° C./min; 1 h at 40° C.; Cool to 5° C. at a rate of 0.1° C.; 1 h at 5° C.; 40° C. at a rate of 0.1° C./min; […] The crystallization experiments were thermally cycled overnight, then slurries were isolated by centrifugation. XRPD analysis was carried out on any isolated solids or gums. The XRPD plate, and the isolated solids, were then dried at 40° C. for about 24 h, and XRPD analysis was repeated. The XRPD plate was then dried at 40° C./75% RH for about 24 h and XRPD analysis was again repeated. All other samples were allowed to evaporated at ambient temperature and pressure.

[5] = Hygroscopicity / dynamic vapor sorption (DVS); format: physicochemical
Protocol: The osanetant p-toluenesulfonic acid Form 1 solids consisted of aggregated crystals with an undefined morphology. Select peaks which can be used to characterize osanetant p-toluenesulfonic acid Form 1 include one or more of 11.4°2θ±0.2°2θ, 18.0°2θ±0.2°2θ, 19.0°2θ±0.2°2θ, 19.3°2θ±0.2°2θ, 19.8°2θ±0.2°2θ, or 21.1°2θ±0.2°2θ. In some embodiments, osanetant p-toluenesulfonic acid Form 1 is a monohydrate.

[6] = Hydration study (stirring in ethanol: water mixtures, XRPD); format: physicochemical
Protocol: (§1) 20 mg of osanetant p-toluenesulfonic acid Form 1 was stirred in the appropriate ethanol: water mixtures for 24 h at 25° C. Where clear solutions were observed after 1 h at 25° C., 0.5 mL of liquor was removed, and additional solid was added until a slurry was maintained. After 24 h total, the experiments were isolated by centrifugation, and the solids were analyzed by XRPD.
as §1, with “Osanetant benzenesulfonic acid” for “20 mg of osanetant p-toluenesulfonic acid”, “Form 3 (20 mg)” for “Form 1”, “was removed from the Aw 0.257 sample,” for “was removed,”

[7] = Solid form stability observations (scale up / polymorph work: drying, ambient conditions, aqueous media); format: physicochemical
Protocol: Two anhydrous forms of the osanetant p-toluenesulfonic acid were synthesized. […] Form 6, described below, was a stable anhydrous form, but hydrated in water and aqueous solvent mixtures.
Advantageously, Form 1 (hydrate) and Form 6 (anhydrous) were stable on drying. Form 1 re-hydrated at room temperature and pressure after KF analysis, when it was heated in an oven to remove the water.
The experiment was cooled to 5° C. at a rate of 0.1° C./min and stirred at 5° C. for 18 h. The slurry was isolated be Buchner filtration: 42.5 mm Ø grade 1 Whatman filter paper; fast Filtration (<30 s); the cake was washed with 1 mL of ethyl acetate; the isolated solids were dried at 40° C. under vacuum for 72 h. […]

[8] = 10 mg in 1 mL of water, 24 h at 25° C.

CC(=O)N(C)C1(c2ccccc2)CCN(CCC[C@]2(c3ccc(Cl)c(Cl)c3)CCCN(C(=O)c3ccccc3)C2)CC1.O=S(=O)(O)c1ccccc1 [Besylate Form 3]
Liquor pH ([1]; slurry in water at 25° C., 24 h): 5.09
HPLC Impurity Content ([2]; 40° C./75% RH): 0.06 % w/w
HPLC Impurity Content ([2]; 80° C.): 0.24 % w/w
HPLC Impurity Content ([2]; Ambient Light): 0.05 % w/w
Concentration ([3]; pH 1.2): 216.3 µg/mL
Concentration ([3]; pH 4.5): 232.4 µg/mL
Concentration ([3]; pH 6.8): 363.7 µg/mL

(R)-N-(1-(3-(1-benzoyl-3-(3,4-dichlorophenyl)piperidin-3-yl)propyl)-4-phenylpiperidin-4-yl)-N-methylacetamide naphthalene-2-sulfonic acid [osanetant naphthalene-2-sulfonic acid Form 3]
XRPD after drying at 40° C./75% RH [4]: retained; also recorded: stable; also recorded: Form 3
XRPD after drying at 40° C. [4]: retained; also recorded: Form 3
impurities on 7-day stability ([2]; 80° C.): increase in impurities
solid form on 7-day stability [2]: stable solid form
hygroscopicity / water loss on DVS analysis [5]: more hygroscopic

CC(=O)N(C)C1(c2ccccc2)CCN(CCC[C@]2(c3ccc(Cl)c(Cl)c3)CCCN(C(=O)c3ccccc3)C2)CC1.O=S(=O)(O)c1ccccc1 [osanetant benzenesulfonic acid Form 3, (R)-N-(1-(3-(1-benzoyl-3-(3,4-dichlorophenyl)piperidin-3-yl)propyl)-4-phenylpiperidin-4-yl)-N-methylacetamide benzenesulfonic acid]
XRPD after drying at 40° C./75% RH [4]: retained; also recorded: stable; also recorded: Form 3
XRPD after drying at 40° C. [4]: Form 3
XRPD form / disproportionation after stirring in water [1, 8]: converted to osanetant benzenesulfonic acid Form 1
pH of the filtered liquor [1, 8]: 5.09
XRPD form after stirring in ethanol: water mixtures ([6]; 24 h at 25° C., Aw 0.507 and above / high water activity): conversion to osanetant benzenesulfonic acid Form 1; also recorded: converted to osanetant benzene sulfonic acid Form 1
XRPD ([6]; slurry in ethanol:water 63.6:36.4 % v/v, calc Aw 0.745, 24 h at 25° C.): Form 1
XRPD ([6]; slurry in ethanol:water 92.9:7.1 % v/v, calc Aw 0.507, 24 h at 25° C.): Form 1
XRPD ([6]; slurry in ethanol:water 98.4:1.6 % v/v, calc Aw 0.257, 24 h at 25° C.): Form 3
hydration / form conversion in water and aqueous solvent mixtures [7]: converted to osanetant benzene sulfonic acid salt form Form 1
form on drying ([7]; drying (40° C. under vacuum where stated)): no change
solid chemical stability ([2]; 7-day stability results, overall): good
impurities on 7-day stability ([2]; 80° C.): slight increase in impurities; also recorded: lowest impurity increase
solid form on 7-day stability [2]: retained form
solid form after thermodynamic solubility in pH buffers [3]: converted to Form 1
thermodynamic solubility in pH buffers / buffered systems [3]: low
